“And” between values parts separate entries of the source, which are not always exact repeats. Identical values can stand only once.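 Five concentrations, 48 hours, 96-well plates. The concentration for 50% growth inhibition is given as GI50. Definition used: TGI = concentration required for complete inhibition of growth.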 *1 amine or outer side, *2 acyl side, *3 side chain or, on linkers, in order; H or OH if unused. Where a SMILES comes first, the peptide text is derived from it. Bridges are numbered along the chain shown (N, C = ends). [ ]: non-standard residue; d: D form. The star is where a group is joined. X19 = O=C([C@H](N[*:1])c1ccc(O[C@H]2O[C@@H](CO)[C@@H](O)[C@@H](O)[C@H]2O[C@@H]2O[C@H](CO)[C@H](O)[C@H](O)[C@@H]2O)cc1)[*:2]; X18 = NC(=O)[C@@H](O[*:3])[C@H](N[*:1])C(=O)[*:2]; X20 = O=C([C@H](N[*:1])c1ccc(O)c(Cl)c1)[*:2]; d(aThr) = C[C@@H](O)[C@@H](N)C(=O)O; dHpg = N[C@@H](C(=O)O)c1ccc(O)cc1; X17 = CC(C)C/C=C/C=C/C(=O)*; dOrn = NCCC[C@@H](N)C(=O)O Some results are limits rather than exact numbers.

This assay deals with MDA-MB-468 breast. In words: NCI tumour cell line growth inhibition, 48 h.
On to `O=S(=O)(NCCCNc1cc(-c2cn(-c3ccccc3)nc2-c2cccc(O)c2)ccn1)c1cccc2ccccc12`, for which the GI50 was 1.85 µM and the TGI came to 6.01 µM.

In the case of `COc1ccc(-c2csc(NC(=O)N3CCN(c4cc5c(cc4F)c(=O)c(C(=O)O)cn5C4CC4)CC3)n2)cc1`, the GI50 is 1.14 µM and the TGI came out at 8.13 µM.

On to `CN(C)CCCN=c1cc2c(=O)n(CCCN(C)C)c(=O)c3c(NCCCN(C)C)cc4c(O)n(CCCN(C)C)c(=O)c1c4c3-2`, for which the GI50 is 1.3 µM and the TGI worked out at 3.58 µM.

Regarding `O=C(O[C@H]1CN[C@H](C#Cc2cc3ncnc(Nc4ccc(OCc5cccc(F)c5)c(Cl)c4)c3s2)C1)N1CCOCC1`, the GI50 is 0.391 µM and the TGI was 4.78 µM.

`O=C(NC1CCN(Cc2ccccc2)CC1)c1cc(C(=O)NC2CCN(Cc3ccccc3)CC2)cc(C(=O)NC2CCN(Cc3ccccc3)CC2)c1`: the GI50 is 0.866 µM and the TGI turned out to be 1.89 µM.

For `CC(C)C/C=C/C=C/C(=O)N[C@@H](CC(N)=O)C(=O)N[C@@H]1C(=O)N[C@H](c2ccc(O)cc2)C(=O)N[C@H](CCCN)C(=O)N[C@H]([C@@H](C)O)C(=O)N[C@H](c2ccc(O)cc2)C(=O)N[C@H](c2ccc(O)cc2)C(=O)N[C@H]([C@H](C)O)C(=O)N[C@H](Cc2ccccc2)C(=O)N[C@H](CCCN)C(=O)N[C@H](c2ccc(O[C@H]3O[C@@H](CO)[C@@H](O)[C@@H](O)[C@H]3O[C@@H]3O[C@H](CO)[C@H](O)[C@H](O)[C@@H]3O)cc2)C(=O)N[C@H]([C@H](C)O)C(=O)N[C@H](c2ccc(O)cc2)C(=O)NCC(=O)N[C@H](CC(C)C)C(=O)N[C@H](C)C(=O)N[C@H](c2ccc(O)c(Cl)c2)C(=O)O[C@@H]1C(N)=O` (X17-N[X18][dHpg][dOrn][d(aThr)][dHpg][dHpg][dT][dF][dOrn][X19][dT][dHpg]G[dL][dA][X20]; ester 2-C), the GI50 was 19.7 µM and the TGI is 56.7 µM.

As for `Cc1cccc2c1O/C(=C\c1ncc([N+](=O)[O-])n1C)C2=O`, the GI50 is 1.41 µM and the TGI was determined as 4.01 µM.

`NC(=O)c1cc(Cl)ccc1NC(=O)c1ccccc1-c1ccccc1`: the GI50 was 0.448 µM and the TGI worked out at 48.7 µM.

With `CNC(=O)c1cncc(/C=C/c2c(C)cccc2C)c1`, the GI50 was above 22.7 µM and the TGI was above 25 µM.

Regarding `N/C(=N\c1nc2ccccc2s1)NC(=O)Nc1ccccc1Cl`, the GI50 is 0.317 µM and the TGI stood at 5.92 µM.

`CCC(c1ccc(OC)cc1)C(CC)c1ccc(O)c(CN2CCCC2)c1` (centres undefined): the GI50 was 1.62 µM and the TGI worked out at 3.69 µM.

Consider `Cc1cccc2c1NC(=O)[C@@]21[C@H](C(=O)c2ccccc2)[C@]2(C(=O)Nc3ccccc32)[C@H]2CCCN21`, for which the GI50 was 22.3 µM and the TGI is above 100 µM.

Regarding `C=C1SC(=Nc2ccccc2Cl)N(C(=O)c2sc3ccccc3c2Cl)C1(C)C`, the GI50 is 12.6 µM and the TGI is above 100 µM.

Take `COc1cc([C@@H]2c3cc4c(cc3[C@H](OC(C)=O)[C@H]3COC(=O)[C@H]23)OCO4)cc(OC)c1OC`: the GI50 is 0.0295 µM and the TGI is above 100 µM.

Consider `COc1cccc(-c2nc(-c3ccc(NC(=O)c4ccccc4)cc3)[nH]c2-c2ccnc(Br)c2)c1`, for which the GI50 is 2.87 µM and the TGI is above 100 µM.

In the case of `O=C1c2cccc3cc([N+](=O)[O-])cc(c23)C(=O)N1CCN1CCCC1`, the GI50 was 0.605 µM and the TGI was determined as 2.44 µM.

For the molecule `COc1ccccc1N1CCN(C(=O)c2ccc(NS(=O)(=O)c3cccc4cccnc34)cc2)CC1`, the GI50 is above 28.9 µM and the TGI was above 100 µM.

Take `O=c1ccccc(-c2ccc(-c3ccco3)cc2)c1O`: the GI50 is 0.32 µM and the TGI came to 3.3 µM.

Take `O=C1/C(=C/c2ccccc2)CN(CCC(=O)N2C/C(=C\c3ccccc3)C(=O)/C(=C/c3ccccc3)C2)C/C1=C\c1ccccc1`: the GI50 was 9.33 µM and the TGI was determined as 42.8 µM.

For `N#C/C(=C/C=C/c1ccccc1)S(=O)c1ccccc1` (centres undefined), the GI50 is 0.274 µM and the TGI stood at 0.987 µM.

`O=C1/C(=C/c2ccccc2Br)COc2ccc(O)c(O)c21`: the GI50 was 1.65 µM and the TGI is 3.94 µM.

For `CC1OC(O[C@H]2/C=C/C=C/C=C/C=C/C=C/C=C/C=C/[C@H](C)[C@@H](O)[C@@H](C)[C@H](C)OC(=O)C[C@H](O)C[C@H](O)CC[C@@H](O)[C@H](O)C[C@H](O)C[C@]3(O)C[C@H](O)[C@@H](C(=O)O)[C@H](C2)O3)C(O)C(N)C1O` (some centres undefined), the GI50 is 53.3 µM and the TGI was above 100 µM.

Consider `C[C@@H](Oc1cc(NS(=O)(=O)N2CCC2)nc(SCc2cccc(F)c2F)n1)[C@@H](O)CO`, for which the GI50 was above 100 µM and the TGI was above 100 µM.

For the molecule `Oc1ccc2ccccc2c1N=Nc1ccccn1`, the GI50 is 1.41 µM and the TGI turned out to be 4.89 µM.

Regarding `CCn1cc(C(=O)N/N=C/c2cccc(F)c2)c(=O)c2cc(F)c(N3CCNC(C)C3)c(F)c21` (centres undefined), the GI50 is 1.64 µM and the TGI came out at 3.18 µM.

Consider `CC(C)(C)N1CC(OC(N)=O)C1`, for which the GI50 is above 100 µM and the TGI is above 100 µM.

Consider `CCC1CCCCN1C(=S)N/N=C(\C)c1ccccn1` (centres undefined), for which the GI50 is below 0.0153 µM and the TGI came to 0.503 µM.

On to `Cc1cc(C(NC(=O)CCCCCNc2cccc3c2C(=O)N(C2CCC(=O)NC2=O)C3=O)c2cccnc2)c(O)c2ncccc12` (centres undefined), for which the GI50 is below 0.01 µM and the TGI stood at 0.0328 µM.

For the molecule `Cc1ccc2c(N/N=C\c3ccco3)cc(C)nc2n1`, the GI50 is 2.68 µM and the TGI turned out to be 7.47 µM.

On to `COc1cc(C)[nH]c(=O)c1CN1CCc2c(Cl)cc([C@H](OC)C3COC3)c(Cl)c2C1=O`, for which the GI50 is above 100 µM and the TGI is above 100 µM.

With `COC(=O)c1cc2c3c(cc(O)c2[nH]1)N(C(=O)C1Cc2cc(OC)c(OC)c(OC)c2N1)CC3CCl` (centres undefined), the GI50 is below 0.01 µM and the TGI is below 0.01 µM.

Turning to `O=C1CCC2=C3C4CCCCC4C(=O)C4CCCC(OC2C1)C34` (centres undefined), the GI50 is 1.87 µM and the TGI stood at 5.2 µM.

As to `COc1c(B(O)O)cccc1-c1nc2c(F)cc3[nH]ncc3c2c2c1CCCC2`, the GI50 is 1.06 µM and the TGI is 3.69 µM.

For the molecule `COc1ccc(Cl)cc1NC(=O)c1c(NC(=O)C(F)(F)C(F)(F)F)sc2c1CCCCC2`, the GI50 was 0.765 µM and the TGI was determined as 4.68 µM.

As for `COc1cc(/C=C2\CN(S(=O)(=O)c3ccc(C)cc3)C/C(=C\c3cc(CN4CCCCC4)c(O)c(OC)c3)C2=O)cc(CN2CCCCC2)c1O`, the GI50 is 1.94 µM and the TGI was found to be 3.99 µM.

For `O=C1/C=C/[C@@H](O)[C@@H]2C[C@@H](O)C[C@H]2/C=C/CCC[C@H](CO)O1`, the GI50 was 0.419 µM and the TGI was 2.77 µM.

With `C#Cc1cccc(Nc2ncnc3ccc(-c4cnc(Cl)c(NS(C)(=O)=O)c4)cc23)c1`, the GI50 is 0.178 µM and the TGI is 0.88 µM.

In the case of `Cc1nn(-c2ccccc2)c2ncnc(N/N=C/c3ccccc3O)c12`, the GI50 is 1.56 µM and the TGI was 8.59 µM.

For `CCCCNC(=O)Oc1ccc2c(=O)c3sc4c(=O)c5ccccc5c(=O)c4c3c(=O)c2c1`, the GI50 was 1.45 µM and the TGI stood at 3.39 µM.

Turning to `O=C(Nc1ccc(Cl)cc1)c1cc2cc(F)ccc2cc1O`, the GI50 is 2.47 µM and the TGI turned out to be 6.17 µM.

Turning to `COc1ccc([C@@H]2[C@@H](O)C(=O)N2c2cc(OC)c(OC)c(OC)c2)cc1`, the GI50 was 0.0243 µM and the TGI amounted to 0.0677 µM.

Turning to `COc1cc2c(Nc3ccc(Br)cc3F)ncnc2cc1OCC1CCN(C)CC1`, the GI50 is 0.455 µM and 0.452 µM; the TGI was 2.57 µM and 3.53 µM.

The values above are taken from PubChem BioAssay (NCI).
